Experimental data reported in article PMC9415947 (Pharmaceuticals, 2022).
Read-outs that look alike come from different tables or passages of the source.

How the values were obtained:
[1] = biological target: T1, PI3Kα (Homo sapiens, UniProt P42336); conditions: PI3Kδ versus PI3Kα, in words; cited from earlier work
T1 construct: purchased Merck Millipore (methods text)

[2] = biological target: T2, PI3Kδ (Homo sapiens, UniProt O00329); conditions: cited from earlier work
T2 construct: purchased Merck Millipore
T2 sequence (O00329 whole entry, looked up): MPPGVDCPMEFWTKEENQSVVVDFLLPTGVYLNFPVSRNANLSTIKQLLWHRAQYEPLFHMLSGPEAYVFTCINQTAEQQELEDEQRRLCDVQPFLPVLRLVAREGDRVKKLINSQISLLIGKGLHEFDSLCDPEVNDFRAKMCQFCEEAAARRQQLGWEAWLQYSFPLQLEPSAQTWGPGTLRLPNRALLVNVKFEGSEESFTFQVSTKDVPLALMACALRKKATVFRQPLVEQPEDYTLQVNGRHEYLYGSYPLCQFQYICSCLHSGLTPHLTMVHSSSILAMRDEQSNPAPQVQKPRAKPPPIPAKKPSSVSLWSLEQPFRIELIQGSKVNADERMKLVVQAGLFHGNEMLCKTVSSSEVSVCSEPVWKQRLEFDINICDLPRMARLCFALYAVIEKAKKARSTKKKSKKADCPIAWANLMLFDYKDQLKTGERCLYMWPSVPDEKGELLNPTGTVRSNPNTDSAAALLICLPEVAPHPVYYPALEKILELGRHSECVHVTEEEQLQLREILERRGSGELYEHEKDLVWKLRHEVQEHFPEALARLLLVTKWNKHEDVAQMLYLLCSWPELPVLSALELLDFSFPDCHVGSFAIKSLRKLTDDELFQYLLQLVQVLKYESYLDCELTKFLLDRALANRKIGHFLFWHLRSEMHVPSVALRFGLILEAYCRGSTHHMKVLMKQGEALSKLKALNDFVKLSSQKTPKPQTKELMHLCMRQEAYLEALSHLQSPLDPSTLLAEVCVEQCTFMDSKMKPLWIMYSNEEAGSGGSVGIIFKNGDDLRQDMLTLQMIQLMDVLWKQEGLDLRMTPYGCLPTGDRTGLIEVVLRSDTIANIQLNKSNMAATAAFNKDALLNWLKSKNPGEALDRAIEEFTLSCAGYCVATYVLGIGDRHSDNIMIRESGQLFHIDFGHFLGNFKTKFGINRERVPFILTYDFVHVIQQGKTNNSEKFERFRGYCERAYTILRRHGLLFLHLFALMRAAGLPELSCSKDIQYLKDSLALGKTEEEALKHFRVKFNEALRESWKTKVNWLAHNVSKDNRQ

[3] = biological target: T1, PI3Kα; assay: In vitro PI3K inhibition assay (ADP-Glo kinase assay), PI3Kα; assay type: biochemical; conditions: for Fold Selectivity α/δ: ratio IC50 PI3Kα / IC50 PI3Kδ
Experimental: (§1) All compounds were tested in a biochemical assay that measured the inhibition of phosphatidylinositol […] production by PI3K isoforms using the ADP-Glo kinase assay (Promega). In addition, the effects of synthesized compounds on B cell proliferation were measured.
(§2) The potency and selectivity of compounds were assessed by measuring the ability of PI3K kinases to convert ATP to ADP during an enzymatic reaction in the presence of decreasing doses of tested compounds. The experiments were carried out using the ADP-Glo kinase assay kit (Promega), according to the manufacturer’s protocol. PI3Kα, PI3Kβ, PI3Kδ, and PI3Kγ have been purchased from Merck Millipore and phosphoinositol-4,5-bisphosphate (PIP2) lipid vesicles with phosphoserine from ThermoFisher Scientific were used as a substrate in the enzymatic reaction.
(§3) After the reaction, the ADP-Glo reagent and the kinase detection reagent were added sequentially with 40 min of incubation (25 °C, 600 rpm) after adding each reagent. Finally, the luminescence intensity was measured and the IC50 was calculated using GraphPad Prism 7 software. The presented results are the mean value of IC50 from at least two independent experiments.

[4] = Plasma protein binding, mice; assay type: in vitro ADME; conditions: mouse
Source text: Table 5 Selected parameters measured for CPL302415 (6). | column: Plasma Protein Binding [%] / Mice

[5] = tested on: CD19+ B cells; assay: B cell (CD19+) proliferation assay, CFSE flow cytometry; assay type: cell-based; conditions: Homo sapiens, 96 h, read-out: IC50 CD19
Experimental: CD19 cells were isolated from PBMCs using magnetic beads (Stem Cell (Vancouver, Canada)) and then labeled with 2 µM of CFSE (Invitrogen (Waltham, MA, USA)).
After 4 days, cells were stained with LIVE/DEAD™ kit (Invitrogen (Waltham, MA, USA)). Samples were acquired using Attune NxT flow cytometer (Invitrogen) and analyzed using FlowJo software. Each biological assay was performed with cells isolated from a different donor. The presented results constitute the average percentage values of proliferating cells from 3 independent experiments.
Human PBMCs were isolated from buffy coats of healthy donors obtained from the Regional Blood Donation and Blood Medicine Center in Warsaw. Lymphocytes B: CD19+ cells were isolated from PBMCs on magnetic beads (Stem Cell), labeled with 2 µM CFSE (Invitrogen), and seeded on a 96-well plate (1 × 10^5 cells/well). B cells were activated by 2 µg/mL of αIgM (Jackson ImmunoResearch) and 1 µg/mL of ODN2006 (InvivoGen). Cells were incubated with increasing concentrations of compounds (range 0.03–10,000 nM). After 4 days, B cells were stained with LIVE/DEAD™ kit (Invitrogen), acquired using the Attune NxT flow cytometer (Invitrogen), and analyzed using FlowJo10 software. For data normalization, the percentage value of proliferating cells in each sample was divided by the average percentage value of positive control in a single experiment. IC50 values were calculated using a three-parameter dose–response inhibition function in GraphPad Prism.

[6] = Plasma protein binding, range across species; assay type: in vitro ADME; conditions: human, monkey, mouse, rat, range depending on the species, read-out: plasma protein binding (PPBs)
[7] = Plasma protein binding, human; assay type: in vitro ADME
Source text: Table 5 Selected parameters measured for CPL302415 (6). | column: Plasma Protein Binding [%] / Human

[8] = PAMPA permeability; assay type: in vitro ADME
[9] = biological target: T3, PI3Kγ (Homo sapiens, UniProt P48736); assay: In vitro PI3K inhibition assay (ADP-Glo kinase assay), PI3Kγ; assay type: biochemical; conditions: for IC50: mean of two independent experiments; for Fold Selectivity γ/δ: ratio IC50 PI3Kγ / IC50 PI3Kδ
T3 construct: purchased Merck Millipore
T3 sequence (P48736 whole entry): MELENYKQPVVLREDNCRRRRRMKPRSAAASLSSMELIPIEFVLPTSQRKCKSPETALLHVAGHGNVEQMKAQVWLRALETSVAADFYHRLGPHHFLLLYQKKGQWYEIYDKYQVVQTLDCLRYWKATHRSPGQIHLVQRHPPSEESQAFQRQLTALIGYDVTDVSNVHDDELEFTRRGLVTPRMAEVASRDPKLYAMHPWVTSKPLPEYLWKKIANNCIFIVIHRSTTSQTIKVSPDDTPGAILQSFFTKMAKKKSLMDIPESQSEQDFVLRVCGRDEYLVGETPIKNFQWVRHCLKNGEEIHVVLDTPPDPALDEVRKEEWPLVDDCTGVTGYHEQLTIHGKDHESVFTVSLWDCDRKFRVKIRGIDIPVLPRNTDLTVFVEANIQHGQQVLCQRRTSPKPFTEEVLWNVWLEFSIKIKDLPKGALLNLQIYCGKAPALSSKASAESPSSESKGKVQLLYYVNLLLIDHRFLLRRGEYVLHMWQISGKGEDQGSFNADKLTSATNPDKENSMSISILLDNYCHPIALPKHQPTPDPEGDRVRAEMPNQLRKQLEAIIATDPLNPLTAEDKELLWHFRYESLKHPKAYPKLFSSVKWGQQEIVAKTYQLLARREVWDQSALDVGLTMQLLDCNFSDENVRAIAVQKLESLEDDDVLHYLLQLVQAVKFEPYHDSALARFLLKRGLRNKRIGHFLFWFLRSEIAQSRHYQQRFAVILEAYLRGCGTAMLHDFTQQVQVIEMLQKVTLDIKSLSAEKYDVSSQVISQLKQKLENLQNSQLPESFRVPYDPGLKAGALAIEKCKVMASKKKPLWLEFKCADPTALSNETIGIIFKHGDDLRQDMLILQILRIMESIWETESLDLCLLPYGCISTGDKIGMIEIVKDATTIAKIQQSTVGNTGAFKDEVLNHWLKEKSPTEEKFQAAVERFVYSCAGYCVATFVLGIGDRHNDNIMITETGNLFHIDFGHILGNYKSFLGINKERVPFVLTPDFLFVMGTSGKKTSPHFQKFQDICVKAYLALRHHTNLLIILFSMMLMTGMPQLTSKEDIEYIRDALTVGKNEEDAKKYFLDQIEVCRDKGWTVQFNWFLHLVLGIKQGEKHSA
Experimental: as §1, §2, §3

[10] = Bioavailability in mice; conditions: mouse, in vivo, depending on the formulation form, read-out: bioavailability F
[11] = Bioavailability in dogs; conditions: dog, in vivo, depending on the formulation form, read-out: bioavailability F
[12] = Plasma protein binding, rat; assay type: in vitro ADME
Source text: Table 5 Selected parameters measured for CPL302415 (6). | column: Plasma Protein Binding [%] / Rat

[13] = Plasma protein binding, monkey; assay type: in vitro ADME
Source text: Table 5 Selected parameters measured for CPL302415 (6). | column: Plasma Protein Binding [%] / Monkey

[14] = Metabolic stability in human liver microsomes (HLM); assay type: in vitro ADME; conditions: read-out: Metabolic Stability HLM t½
[15] = Metabolic stability in mouse liver microsomes (MLM); assay type: in vitro ADME, mouse (CD-1)
[16] = biological target: T2, PI3Kδ; assay: In vitro PI3K inhibition assay (ADP-Glo kinase assay), PI3Kδ; assay type: biochemical; conditions: mean of two independent experiments
Experimental: as §1, §2, §3

[17] = biological target: T4, PI3Kβ (Homo sapiens, UniProt P42338); assay: In vitro PI3K inhibition assay (ADP-Glo kinase assay), PI3Kβ; assay type: biochemical; conditions: for IC50: mean of two independent experiments; for Fold Selectivity β/δ: ratio IC50 PI3Kβ / IC50 PI3Kδ
T4 construct: purchased Merck Millipore
T4 sequence (P42338 whole entry, looked up): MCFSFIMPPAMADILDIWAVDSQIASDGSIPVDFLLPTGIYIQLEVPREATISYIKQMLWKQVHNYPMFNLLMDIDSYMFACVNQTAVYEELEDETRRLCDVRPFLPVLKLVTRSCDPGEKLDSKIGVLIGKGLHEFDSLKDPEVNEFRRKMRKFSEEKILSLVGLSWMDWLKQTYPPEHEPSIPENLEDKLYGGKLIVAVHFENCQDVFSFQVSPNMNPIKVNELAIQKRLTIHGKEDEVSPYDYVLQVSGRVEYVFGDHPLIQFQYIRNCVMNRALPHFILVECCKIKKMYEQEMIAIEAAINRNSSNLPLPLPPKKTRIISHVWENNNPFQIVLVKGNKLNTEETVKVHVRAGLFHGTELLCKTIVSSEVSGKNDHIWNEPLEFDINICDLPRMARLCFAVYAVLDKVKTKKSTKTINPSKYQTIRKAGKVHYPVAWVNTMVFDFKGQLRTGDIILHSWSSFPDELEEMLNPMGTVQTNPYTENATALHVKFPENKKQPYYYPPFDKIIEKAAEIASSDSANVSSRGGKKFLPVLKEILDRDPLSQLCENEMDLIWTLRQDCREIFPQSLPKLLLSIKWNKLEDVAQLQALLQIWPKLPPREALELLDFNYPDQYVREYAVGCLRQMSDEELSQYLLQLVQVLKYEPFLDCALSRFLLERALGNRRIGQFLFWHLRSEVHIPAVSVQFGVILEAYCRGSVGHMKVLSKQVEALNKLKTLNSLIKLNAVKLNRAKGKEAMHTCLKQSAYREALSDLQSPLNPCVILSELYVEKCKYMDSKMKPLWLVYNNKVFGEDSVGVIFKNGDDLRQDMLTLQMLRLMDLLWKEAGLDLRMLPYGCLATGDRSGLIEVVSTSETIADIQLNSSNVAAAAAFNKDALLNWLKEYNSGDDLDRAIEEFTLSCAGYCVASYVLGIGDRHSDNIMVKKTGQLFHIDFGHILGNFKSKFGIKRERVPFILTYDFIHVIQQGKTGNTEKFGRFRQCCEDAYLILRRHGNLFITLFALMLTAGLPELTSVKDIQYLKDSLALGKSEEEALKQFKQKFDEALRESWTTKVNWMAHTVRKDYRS
Experimental: as §1, §2, §3

[18] = Kinetic solubility, shake-flask protocol; assay type: physicochemical; conditions: aqueous buffer, kinetic from dmso stock; phosphate-buffered saline pH 7.4, 25 °C
[19] = biological target: T2, PI3Kδ; conditions: cited from earlier work; remark: listed apart in the source
[20] = B cell proliferation, activated by αIgM and ODN2006, 4 days

T1 sequence (P42336 whole entry): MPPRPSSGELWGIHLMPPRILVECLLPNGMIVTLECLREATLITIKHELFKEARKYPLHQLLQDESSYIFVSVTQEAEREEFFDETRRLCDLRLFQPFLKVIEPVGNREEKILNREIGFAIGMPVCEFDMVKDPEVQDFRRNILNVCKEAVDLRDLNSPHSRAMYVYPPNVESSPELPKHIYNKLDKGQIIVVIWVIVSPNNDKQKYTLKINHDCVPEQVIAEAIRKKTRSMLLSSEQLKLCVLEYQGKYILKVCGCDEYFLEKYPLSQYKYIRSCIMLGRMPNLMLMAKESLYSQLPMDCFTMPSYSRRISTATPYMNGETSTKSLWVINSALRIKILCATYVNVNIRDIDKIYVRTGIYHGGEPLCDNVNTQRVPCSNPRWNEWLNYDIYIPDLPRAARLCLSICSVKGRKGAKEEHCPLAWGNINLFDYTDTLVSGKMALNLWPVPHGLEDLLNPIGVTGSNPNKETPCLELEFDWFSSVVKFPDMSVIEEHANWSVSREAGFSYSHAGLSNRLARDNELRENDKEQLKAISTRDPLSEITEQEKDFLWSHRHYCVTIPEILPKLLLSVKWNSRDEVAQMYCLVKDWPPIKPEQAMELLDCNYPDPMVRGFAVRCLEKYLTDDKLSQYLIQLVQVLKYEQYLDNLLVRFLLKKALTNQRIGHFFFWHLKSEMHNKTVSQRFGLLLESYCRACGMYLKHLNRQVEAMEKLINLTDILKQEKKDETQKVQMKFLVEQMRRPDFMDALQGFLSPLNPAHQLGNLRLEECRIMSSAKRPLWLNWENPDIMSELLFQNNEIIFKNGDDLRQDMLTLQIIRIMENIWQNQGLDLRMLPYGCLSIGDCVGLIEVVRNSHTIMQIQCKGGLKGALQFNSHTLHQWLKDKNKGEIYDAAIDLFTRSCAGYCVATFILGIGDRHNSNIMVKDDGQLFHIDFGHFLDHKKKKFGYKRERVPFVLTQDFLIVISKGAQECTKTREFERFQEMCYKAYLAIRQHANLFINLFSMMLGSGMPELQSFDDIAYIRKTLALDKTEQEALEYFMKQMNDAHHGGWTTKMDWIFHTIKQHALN
T1 sequence (P27986 whole entry partner): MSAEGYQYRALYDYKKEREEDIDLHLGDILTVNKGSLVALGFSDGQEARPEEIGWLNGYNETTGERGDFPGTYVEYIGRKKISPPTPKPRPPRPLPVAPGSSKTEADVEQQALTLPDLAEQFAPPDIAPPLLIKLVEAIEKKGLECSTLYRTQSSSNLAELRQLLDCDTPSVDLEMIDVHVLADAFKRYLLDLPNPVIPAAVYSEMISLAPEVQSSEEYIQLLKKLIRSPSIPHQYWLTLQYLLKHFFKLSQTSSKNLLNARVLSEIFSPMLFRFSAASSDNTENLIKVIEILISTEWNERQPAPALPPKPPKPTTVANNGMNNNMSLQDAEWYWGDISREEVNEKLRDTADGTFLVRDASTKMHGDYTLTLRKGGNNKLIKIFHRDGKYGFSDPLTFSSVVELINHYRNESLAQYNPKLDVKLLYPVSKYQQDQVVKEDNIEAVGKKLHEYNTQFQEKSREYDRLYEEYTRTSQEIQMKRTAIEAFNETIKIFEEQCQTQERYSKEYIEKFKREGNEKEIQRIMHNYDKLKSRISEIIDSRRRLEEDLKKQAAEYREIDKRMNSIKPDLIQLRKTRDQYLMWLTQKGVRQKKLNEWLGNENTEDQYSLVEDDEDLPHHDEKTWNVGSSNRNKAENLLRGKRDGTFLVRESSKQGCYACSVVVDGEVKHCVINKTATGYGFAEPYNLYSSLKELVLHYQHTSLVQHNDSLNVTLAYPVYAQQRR

In the case of `Cc1cc2nc(-n3c(C(F)F)nc4ccccc43)cc(N3CCOCC3)n2n1` [Compound 1], the “selectivity toward the alpha isoform” value [1] is listed as “poor” and the IC50 [2] is listed as 0.475 µM.
In the case of `CC(C)(C)N1CCN(Cc2cc3nc(-n4c(C(F)F)nc5ccccc54)cc(N4CCOCC4)n3n2)CC1` [Compound 6, 1-{2-[(4-tert-butylpiperazin-1-yl)methyl]-7-(morpholin-4-yl)pyrazolo[1,5-a]pyrimidin-5-yl}-2-(difluoromethyl)-1H-benzimidazole], the IC50 [3] is reported as 1.43 µM, the “Fold Selectivity α/δ” value [3] is reported as 79 and the fraction unbound [4] is reported as 0.17. It also gave an IC50 ([5]; B-cell) of 0.041 µM, a fraction unbound [6] of 0.17 to 0.21 and a fraction unbound [7] of 0.21. The Papp [8] was 133 nm/s, the IC50 [9] was 16.9 µM and the “Fold Selectivity γ/δ” value [9] was 939. It also gave a bioavailability [10] of over 55%, a bioavailability [11] of over 90% and a fraction unbound [12] of 0.18. For the same compound, the fraction unbound [13] was 0.19, the half-life at 1 μM [14] was 2.42 h and the microsomal CLint at 1 μM ([15]; CD-1, read-out: Metabolic Stability MLM CL) was 3.7 µL/min/mg. The half-life at 1 μM ([15]; CD-1, read-out: Metabolic Stability MLM t½) was 6.3 h, the IC50 [16] was 0.018 µM and the IC50 [17] was 25.5 µM. The “Fold Selectivity β/δ” value [17] was 1415 and the solubility kinetic at 24 h [18] was over 500 µM.
For `CS(=O)(=O)N1CCN(Cc2cc3nc(-n4c(C(F)F)nc5ccccc54)cc(N4CCOCC4)n3n2)CC1` [Compound 16, 2-(difluoromethyl)-1-{2-[(4-methanesulfonylpiperazin-1-yl)methyl]-7-(morpholin-4-yl)pyrazolo[1,5-a]pyrimidin-5-yl}-1H-1,3-benzimidazole], the IC50 [3] was 0.044 µM, the “Fold Selectivity α/δ” value [3] was 1.0 and the IC50 [5, 20] was 0.114 µM. The IC50 [9] was 0.111 µM, the “Fold Selectivity γ/δ” value [9] was 2.6 and the IC50 [16] was 0.043 µM. The IC50 [17] was 13.6 µM and the “Fold Selectivity β/δ” value [17] was 316.
For `CC(C)(C(N)=O)N1CCN(Cc2cc3nc(-n4c(C(F)F)nc5ccccc54)cc(N4CCOCC4)n3n2)CC1` [Compound 17, 2-[4-({5-[2-(difluoromethyl)-1H-1,3-benzimidazol-1-yl]-7-(morpholin-4-yl)pyrazolo[1,5-a]pyrimidin-2-yl}methyl)piperazin-1-yl]-2-methylpropanamide], the IC50 [3] was 0.624 µM, the “Fold Selectivity α/δ” value [3] was 20 and the IC50 [5, 20] was 0.052 µM. The IC50 [9] was 2.2 µM, the “Fold Selectivity γ/δ” value [9] was 71 and the IC50 [16] was 0.031 µM. The IC50 [17] was 44.8 µM and the “Fold Selectivity β/δ” value [17] was 1444.
For `O=C(C1CC1)N1CCN(Cc2cc3nc(-n4c(C(F)F)nc5ccccc54)cc(N4CCOCC4)n3n2)CC1` [Compound 18], the IC50 [3] was 0.073 µM, the “Fold Selectivity α/δ” value [3] was 3.0 and the IC50 [5, 20] was 0.058 µM. The IC50 [9] was 0.156 µM, the “Fold Selectivity γ/δ” value [9] was 6.5 and the IC50 [16] was 0.024 µM. For the same compound, the IC50 [17] was 47.4 µM and the “Fold Selectivity β/δ” value [17] was 1973.
In the case of `CS(=O)(=O)N1CCN(Cc2cc3nc(-c4cccc5[nH]ncc45)nc(N4CCOCC4)c3s2)CC1` [GDC-0941, 2-(1 H -Indazol-4-Yl)-6-(4-Methanesulfonyl-Piperazin-1-Ylmethyl)-4-Morpholin-4-Yl-Thieno [3,2-d]Pyrimidine], the PI3Kγ/δ selectivity [19] is given as “poor”.
